Literature values, collected in US20110034507A1, “FARNESOID X RECEPTOR AGONISTS” (SMITHKLINE BEECHAM CORPORATION, priority 2007, published 2011).

How the values were obtained:
[1] = system: hepatic stellate cells (HSC); details: cultured HSCs; cited from earlier work
[2] = system: rodent models of hepatic fibrosis; details: multiple rodent models; cited from earlier work

Structure (SMILES): CC[C@H]1[C@@H](O)[C@@H]2[C@H](CC[C@]3(C)[C@@H]([C@H](C)CCC(=O)O)CC[C@@H]23)[C@@]2(C)CC[C@@H](O)C[C@@H]12 [Example 6EtCDCA, 6-ethyl-chenodeoxycholic acid]
- expression of α1(I)collagen [1]: decreased
- expression of α-smooth muscle actin [1]: decreased
- hepatic fibrosis [2]: prevent development and promote resolution
